Measurements published in patent publication US20260138976A1 (Hoffmann-La Roche Inc., priority 2022, published 2026).
“And” between values parts separate entries of the source, which are not always exact repeats. Equal entries are not always repeated.

Tests used:
[1] = molecular target: T1, DGKζ (hDGKzeta(1-928)-N-His) (Homo sapiens, UniProt Q13574); assay: In vitro DGK inhibition assay, DGKzeta ADP Glo (in house); type: biochemical; details: 2 nM DGKζ, 50 μM ATP, 125 uM DLG in liposomes, 1 hour reaction
T1 construct: hDGKzeta(1-928)-N-His; His (N); made in house; host or cells: Sf21 insect cells (baculovirus)
T1 sequence (Q13574 whole entry): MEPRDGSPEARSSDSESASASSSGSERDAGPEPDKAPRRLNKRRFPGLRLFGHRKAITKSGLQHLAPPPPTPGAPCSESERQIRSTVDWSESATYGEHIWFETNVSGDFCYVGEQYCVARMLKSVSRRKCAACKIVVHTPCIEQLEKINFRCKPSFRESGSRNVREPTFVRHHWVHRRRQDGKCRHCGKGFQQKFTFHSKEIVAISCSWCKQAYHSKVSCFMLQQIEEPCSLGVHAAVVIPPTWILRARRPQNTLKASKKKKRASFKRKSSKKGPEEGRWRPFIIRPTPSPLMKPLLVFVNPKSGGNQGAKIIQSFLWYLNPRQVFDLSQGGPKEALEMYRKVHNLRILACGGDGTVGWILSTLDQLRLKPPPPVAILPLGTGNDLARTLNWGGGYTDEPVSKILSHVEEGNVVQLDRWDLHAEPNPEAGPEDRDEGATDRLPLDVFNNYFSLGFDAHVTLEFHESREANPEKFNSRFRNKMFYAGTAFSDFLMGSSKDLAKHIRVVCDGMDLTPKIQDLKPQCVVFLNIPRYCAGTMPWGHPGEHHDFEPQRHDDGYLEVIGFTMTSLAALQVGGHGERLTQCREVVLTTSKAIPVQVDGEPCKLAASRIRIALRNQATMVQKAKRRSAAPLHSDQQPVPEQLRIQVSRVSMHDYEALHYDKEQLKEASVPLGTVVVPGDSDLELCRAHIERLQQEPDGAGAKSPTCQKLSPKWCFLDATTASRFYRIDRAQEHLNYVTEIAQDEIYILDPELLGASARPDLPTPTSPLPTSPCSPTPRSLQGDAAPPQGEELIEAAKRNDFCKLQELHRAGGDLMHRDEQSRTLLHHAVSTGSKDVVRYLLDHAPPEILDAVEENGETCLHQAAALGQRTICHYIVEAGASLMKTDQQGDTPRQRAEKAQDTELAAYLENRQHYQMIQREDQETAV
Description: DGKα and ζ kinases use ATP to phosphorylate the substrate 1,2-dilauroyl-sn-glycerol (DLG, incorporated in the liposomes). ATP is converted to ADP as a result of this enzymatic reaction. After the kinase reaction, an ATP-depletion reagent is added to terminate the kinase reaction and deplete any remaining ATP, leaving only ADP. Second, a detection reagent is added to simultaneously convert ADP to ATP and allow the newly synthesized ATP to be converted to light using a coupled luciferase/luciferin reaction.
Full length DGKα and ζ were expressed in Sf21 insect cells by infecting the cells with the baculovirus stock at MOI of 2. Purification of both enzymes was performed as previously described by Takahashi et al., PeerJ, 2018 (Takahashi, D.; Sakane, F. Expression and purification of human diacylglycerol 5 kinase alpha from baculovirus-infected insect cells for structural studies. PeerJ2018, 6, No. e5449).
A concentrated liposome solution was prepared in assay buffer without DTT and BSA: 2 mM of DLG in 21 mM of total liposome (2 mM DLG/8 mM PS/11 mM PC). The reaction mixtures contain the assay buffer with a final DLG concentration of 125 uM ATP concentrations of 25 μM (for DGKA assay) or 50 μM (for DGKZ assay). The reactions were started by addition of DGK α and ζ kinases at 4 nM and 2 nM final concentrations, respectively. After 1 hour reaction, the amount of ADP formed was detected with the ADP-Glo kinase assay (Promega) according to the manufacturer instructions. Compounds were added in 11-points dose response, starting at […], 1:3 dilutions, with a final DMSO concentration of 2%. The multidrop combi was used as a liquid handler and luminescence was read with 0.5 s by the envision reader (PE).

[2] = tested on: primary human T-cells; assay: Proliferation assay (5 days, CellTiter-Glo, CD3-stimulated T-cells); type: cell-based; details: for EC50: CD3-stimulated primary human T-cells, 5 days, CellTiter-Glo, fitted sigmoidal curve, read-out: Tcell Proliferation CD3 EC50; for Emax proliferation (% activation): CD3 condition, normalised to DMSO (neutral) and 20 μM reference compound A1 = 100%
Description: (§1) As readouts for T-cell activation, 1L2 secretion after 24 hours and proliferation after 5 days was measured. Increases in IL2 secretion and proliferation upon compound treatment were assessed as the % of the maximum of reference compound A1. WO 2016/139181 discloses reference compound A1 as example 70. As a counter screen and to make sure that no unwanted TCR-independent activation was triggered, PBS conditions were run for all compounds.
Expanded primary human T-cells are thawed and cultured in RPMI 1640 (Gibco, #61870-010)+5% human serum (HS, Sigma, #H3667)+1 mM Sodium Pyruvate (Gibco, #11360-039)+50 μM 2-mercaptoethanol (Gibco, #31350-010) and 1× Pen-Strep (Life Technologies, #15140122) medium at density of 2 Mio/ml for 3 hours in 5% CO2, 37° C. and 95% humidity. For coating of plates, PBS++ only or PBS++ with CD3 antibody (concentration depending on donor and determined by CD3 titrations) is added 100 μl/well to Poly-D Lysine coated 96-well plates. Plates are sealed and incubated at room temperature for 3 hours on a table-top rocking platform. After incubation, plates are washed once with PBS−− and filled with 40 μl/well culture medium only. Compounds are then added (see next section) to medium only plates. After 3 hours of culturing the T-cells, cells are filtered through a cell strainer (Miltenyi Biotech, #130-041-407), counted again and concentration is adjusted to 1.25 Mio/ml.
Cells are then seeded 80 μl/well to the 40 μl/well including dispensed compounds according to plate layout. By adding cells, compounds are further diluted 1:3, and resulting in 100 k cells/120 μl/well. After 48 hours 40 μl of supernatant is collected carefully from the top while not disturbing the cells. Cells are assessed for proliferation 5 days later by measuring […] using CellTiterGlo (Promega).
(§2) Compounds were added in a 5 or 6 pt dose response with the Tecan D300e Digital Dispenser, all conditions 3 times more concentrated than the end-concentration, since cells are added afterwards (80 μl cells to 40 μl prepared medium with treatment). The DR was starting at 20 μM or 10 μM final top concentration and a dilution factor of 3.333. The positive control was the reference compound A1 that was added in a dose response as well, additionally to 3 wells of only 20 μM representing the positive stimulator control. All wells were normalized with DMSO to a final concentration of 0.6% (0.2% end-concentration).
After 5 days, for detection of ATP which is directly proportional to the number of cells present per well, the CellTiter-Glo® 2.0 Reagent is used. After visual control for toxicity or precipitations of the tested compounds, the plates are equilibrated to room temperature for 45 minutes. CellTiter-Glo® 2.0 Reagent is equilibrated to room temperature as well. After equilibration, an equal amount of CellTiter-Glo reagent is added to the cells (80 μl/well) with an electronic multichannel pipette. Plates are placed on a rocking platform for 15 minutes at room temperature. After incubation, the bottom of the plates is sealed with backing tape. Luminescence is measured with PHERAstar FSX (interval time 0.5 sec, gain 3000, focal height 15 mm) and exported as CSV file for analysis in Genedata screener.
CD3 and PBS plates were analysed separately in Genedata Screener using Roche Normalization PCT_POS_CTRL with DMSO set as Neutral Control and 20 μM of the reference compound A1 set as Stimulator Control/100%.
For CD3 conditions EC50 and Emax of the fitted sigmoidal curve were reported. If no curve could be fitted, the EC50 was reported as blank field and the Emax was based on individual data points. […] Compounds which activate unstimulated cells (see IL2 measurements) or compounds which negatively affected viability were flagged.

[3] = tested on: primary human T-cells; assay: IL2 secretion measurements (24 h, CD3-stimulated T-cells, PBS counter screen); type: cell-based; details: for EC50: CD3-stimulated primary human T-cells, IL2 secretion, fitted sigmoidal curve, read-out: Tcell IL2 CD3 EC50; for Emax IL2 (% activation): CD3 condition, normalised to DMSO (neutral) and 20 μM reference compound A1 = 100%
Description: as §1
Expanded primary human T-cells were thawed and cultured in RPMI 1640 (Gibco, #61870-010)+5% human serum (HS, Sigma, #H3667)+1 mM Sodium Pyruvate (Gibco, #11360-039)+50 μM 2-mercaptoethanol (Gibco, #31350-010) and 1× Pen-Strep (Life Technologies, #15140122) medium at density of 2 Mio/ml for 3 hours in 5% CO2, 37° C. and 95% humidity. For coating of plates, […] or PBS++ with CD3 antibody (concentration depending on donor and determined by CD3 titrations) was added 100 μl/well to Poly-D Lysine coated 96-well plates. Plates were sealed and incubated at room temperature for 3 hours on a table-top rocking platform. After incubation, plates were washed once with PBS−− and filled with 40 μl/well culture medium only. Compounds were then added (see next section) to medium only plates. After 3 hours of culturing the T-cells, cells were filtered through a cell strainer (Miltenyi Biotech, #130-041-407), counted again and concentration was adjusted to 1.25 Mio/ml.
Cells were then seeded 80 μl/well to the 40 μl/well including dispensed compounds according to plate layout. By adding cells, compounds were further diluted 1:3, and resulting in 100 k cells/120 μl/well. After 24 hours 40 μl of supernatant was collected carefully from the top while not disturbing the cells and transferred into a round bottom 96 well plate. Collected and frozen supernatant was used for detection of IL2 using the IL-2 Human ProQuantum Immunoassay Kit (Invitrogen) or using the Human IL-2 ELISA Kit (Thermo Fisher).
as §2
The immunoassay is done following the manufacturer's manual (Invitrogen, #A35603). Additional information: For the immunoassay, MicroAmp™ EnduraPlate™ Optical 384-Well plates are used. Frozen supernatant is thawed and centrifuged for 5 minutes at 1000×g, both steps at 4° C. After centrifugation, required sample amount is taken from the top, and in a separate LightCycler V-bottom plate (working plate) diluted with assay dilution buffer, dilution factor depending on the PBS or CD3 condition but at least 1:3. IL-2 standard and blanks are prepared in the same V-bottom plate, standard with a range of 0.0128-5000 pg/ml (extended version). After preparation, 5 μl of sample dilutions or standard/blanks are transferred to the optical 384-well plate (assay plate) and the 10 μl reaction protocol is being followed. For measurement, the QuantStudio 12K Flex system is used. Raw data is extracted and IL-2 concentrations are calculated with the Thermo Fisher online app (apps.thermofisher.com/apps/proquantum).
ELISA is done following the manufacturer's manual (Thermo Fisher Scientific, #88-7025-88). Additional information: For the ELISA Nunc MaxiSorp 96 well plates are used. Frozen supernatant is thawed and centrifuged for 5 minutes at 1000×g, both steps at 4° C. […]

IC50 [1]	SMILES	EC50 [2]	Emax proliferation (% activation) [2]	EC50 [3]	Emax IL2 (% activation) [3]	EC50 ([2]; Homo sapiens, T-cell, 120 h)	EC50 ([3]; Homo sapiens, T-cell)
467 nM and 3210 nM	COc1ccc(-c2ccc(CN3C(=O)[C@@H](N)CS(=O)(=O)c4ccc(-c5nnc(C(C)(C)C#N)o5)cc43)cc2)cc1 [Example 45, 2-[5-[(3R)-3-amino-5-[[4-(4-methoxyphenyl)phenyl]methyl]-1,1,4-trioxo-2,3-dihydro-1λ^6,5-benzothiazepin-7-yl]-1,3,4-oxadiazol-2-yl]-2-methyl-propanenitrile]						
	COC(=O)N1CC2CC(c3nnc(-c4ccc5c(c4)N(Cc4ccc(-c6noc(C(F)(F)F)n6)cc4)C(=O)[C@@H](N)CS5(=O)=O)o3)(C2)C1 [Example 61, methyl 1-[5-[(3R)-3-amino-1,1,4-trioxo-5-[[4-[5-(trifluoromethyl)-1,2,4-oxadiazol-3-yl]phenyl]methyl]-2,3-dihydro-1λ^6,5-benzothiazepin-7-yl]-1,3,4-oxadiazol-2-yl]-3-azabicyclo[3.1.1]heptane-3-carboxylate]	216 nM	228 % activation	606 nM	241 % activation		
	COC(F)(c1nnc(-c2ccc3c(c2)N(Cc2ccc(-c4nnc(C(F)(F)F)o4)cc2)C(=O)[C@@H](N)CS3(=O)=O)o1)C(F)(F)F (stereo partly drawn) [Example 67, (3R)-3-amino-1,1-dioxo-7-[5-(1,2,2,2-tetrafluoro-1-methoxy-ethyl)-1,3,4-oxadiazol-2-yl]-5-[[4-[5-(trifluoromethyl)-1,3,4-oxadiazol-2-yl]phenyl]methyl]-2,3-dihydro-1λ^6,5-benzothiazepin-4-one]		119 % activation		168 % activation	262 nM	739 nM
	N[C@H]1CS(=O)(=O)c2ccc(-c3nnc(N4CCC(F)(F)CC4)o3)cc2N(Cc2ccc(-c3noc(C4CC4)n3)cc2)C1=O [Example 69, (3R)-3-amino-5-[[4-(5-cyclopropyl-1,2,4-oxadiazol-3-yl)phenyl]methyl]-7-[5-(4,4-difluoro-1-piperidyl)-1,3,4-oxadiazol-2-yl]-1,1-dioxo-2,3-dihydro-1λ^6,5-benzothiazepin-4-one]		125 % activation		83 % activation	409 nM	448 nM
	N[C@H]1CS(=O)(=O)c2ccc(-c3nnc(N4CCC(F)(F)CC4)o3)cc2N(Cc2ccc(-c3nnc(C(F)F)o3)cc2)C1=O [Example 70, (3R)-3-amino-5-[[4-[5-(difluoromethyl)-1,3,4-oxadiazol-2-yl]phenyl]methyl]-7-[5-(4,4-difluoro-1-piperidyl)-1,3,4-oxadiazol-2-yl]-1,1-dioxo-2,3-dihydro-1λ^6,5-benzothiazepin-4-one]		76 % activation		43 % activation	2760 nM	> 10000 nM
	N[C@H]1CS(=O)(=O)c2ccc(-c3nnc(N4CCOC(F)(F)C4)o3)cc2N(Cc2ccc(-c3nnc(C(F)F)o3)cc2)C1=O [Example 82, (3R)-3-amino-5-[[4-[5-(difluoromethyl)-1,3,4-oxadiazol-2-yl]phenyl]methyl]-7-[5-(2,2-difluoromorpholin-4-yl)-1,3,4-oxadiazol-2-yl]-1,1-dioxo-2,3-dihydro-1λ^6,5-benzothiazepin-4-one]		78 % activation		25 % activation	6120 nM	> 10000 nM
	NC(c1nnc(-c2ccc3c(c2)N(Cc2ccc(-c4ccc(C(F)(F)F)cc4)cc2)C(=O)[C@@H](N)CS3(=O)=O)o1)C(F)(F)F (stereo partly drawn) [Example 151, (3R)-3-amino-7-[5-(1-amino-2,2,2-trifluoro-ethyl)-1,3,4-oxadiazol-2-yl]-1,1-dioxo-5-[4-[4-(trifluoromethyl)phenyl]phenyl] methyl 1-2,3-dihydro-1λ^6,5-benzothiazepin-4-one]		105 % activation		65 % activation	1850 nM	903 nM
